Legend:
[1] = target: T1, GAL4 DBD-CfEcR(DEF)/VP16AD-MmRXRE (Choristoneura fumiferana, UniProt O77240); assay: cell-based; conditions: for fold induction at 33 µM: CHO, read-out: Fold Induction Average, 13B3 Assay (33 μM); for 13B3 Rel Max FI: maximum fold induction at any concentration relative to that of GS-E ligand
T1 sequence (O77240 1-513): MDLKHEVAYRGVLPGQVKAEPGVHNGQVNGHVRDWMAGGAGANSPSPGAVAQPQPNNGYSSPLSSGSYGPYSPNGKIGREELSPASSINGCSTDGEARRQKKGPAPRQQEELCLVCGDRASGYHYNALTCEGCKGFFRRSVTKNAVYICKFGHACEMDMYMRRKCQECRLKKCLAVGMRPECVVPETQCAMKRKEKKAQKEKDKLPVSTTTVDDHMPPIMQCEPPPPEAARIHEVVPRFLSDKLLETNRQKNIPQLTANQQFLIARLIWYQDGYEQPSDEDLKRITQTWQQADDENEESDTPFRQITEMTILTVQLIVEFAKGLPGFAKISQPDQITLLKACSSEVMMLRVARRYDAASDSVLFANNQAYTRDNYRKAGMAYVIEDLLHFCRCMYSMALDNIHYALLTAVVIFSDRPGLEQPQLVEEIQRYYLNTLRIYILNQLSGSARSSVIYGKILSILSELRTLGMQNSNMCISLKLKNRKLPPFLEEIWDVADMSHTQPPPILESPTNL
In short: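 Stable CHO clone 13B3 expressing GAL4 DBD-CfEcR(DEF) and VP16AD-mouse RXR(DE) with GAL4 RE-luciferase reporter. Ligands tested at 8 concentrations, 33–0.01 μM; luciferase read 48 h after treatment. Fold induction versus DMSO; BC50 from three-parameter logistic fit.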

[2] = target: T2, GAL4 DBD (1-147)-CfEcR(DEF)/VP16AD-βRXREF-LmUSPEF (Choristoneura fumiferana, UniProt O77240); assay: 27-63 assay: luciferase reporter gene expression in stable CHO cell clone 27-63; conditions: for 27-63 Rel Max FI: maximum fold induction at any concentration relative to that of GS-E ligand; for CC50: read-out: 27-63 LC50, average, dose response, three-parameter logistic model; for fold induction at 33 µM: CHO, read-out: Fold Induction Average, 27-63 Assay (33 μM)
T2 sequence (O77240 191-513): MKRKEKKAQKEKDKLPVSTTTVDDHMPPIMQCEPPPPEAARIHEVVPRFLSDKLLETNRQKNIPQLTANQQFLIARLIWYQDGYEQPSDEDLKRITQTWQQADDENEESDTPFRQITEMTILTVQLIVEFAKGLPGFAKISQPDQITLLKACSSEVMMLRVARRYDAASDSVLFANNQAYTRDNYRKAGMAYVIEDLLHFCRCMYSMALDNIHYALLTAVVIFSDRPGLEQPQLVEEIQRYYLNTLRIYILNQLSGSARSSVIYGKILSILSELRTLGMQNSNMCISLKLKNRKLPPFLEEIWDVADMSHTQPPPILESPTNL
T2 sequence (P28702 296-455 partner limits assumed): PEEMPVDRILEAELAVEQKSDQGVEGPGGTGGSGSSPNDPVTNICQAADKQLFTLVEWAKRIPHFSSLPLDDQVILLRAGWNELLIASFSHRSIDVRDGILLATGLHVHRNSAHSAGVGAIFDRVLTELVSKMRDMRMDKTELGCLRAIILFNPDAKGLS
In short: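 CHO clone stably expressing GAL4 DBD-CfEcR(DEF) and VP16AD-HsRXRβ/LmUSP EF chimera plus a 5XGAL4RE-luciferase reporter; ligands given at 8 concentrations (33 μM to 0.01 μM), luminescence read 48 h after treatment. Fold induction versus DMSO cells; BC50 from three-parameter logistic fit.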

SMILES | EC50 [1] [µM] | fold induction at 33 µM [1] | 13B3 Rel Max FI [1] | 27-63 Rel Max FI [2] | CC50 [2] [µM] | fold induction at 33 µM [2]
COc1ccccc1C(=O)C1(NC(=O)c2cccc(OC)c2C)CCCC1 [Example 40] | ~15 | 2170 | 0.58 | 0.67 | 6.61 | 
COc1cccc(C(=O)NC2(C(=O)c3ccccc3C)CCCCC2)c1C [Example 44] | > 33 | 36 | 0.00 | 0.07 | > 33 | 
COc1cccc(C(=O)NC2(C(=O)c3ccc(F)c(C)c3)CCCC2)c1C [Example 17] | 4.51 | 1190 | 0.01 | 0.40 | ~5.5 | 
COc1cccc(C(=O)NC(C)(C(=O)c2ccc(C)cc2)C(C)C)c1C (centres unmarked) [Example 33] | > 33 | 78 | 0.00 | 0.00 | > 33 | 
COc1cccc(C(=O)NC2(C(=O)c3cc(C)cc(C)c3)CCCCC2)c1C [Example 11] | 1.8 | 94700 | 1.15 | 0.97 | 1.43 | 
COc1cccc(C(=O)NC2(C(=O)c3ccc(F)cc3)CCCC2)c1C [Example 42] | > 33 | 4 | 0.00 | 0.01 | > 33 | 
COc1cccc(C(=O)NC2(C(=O)c3ccc(F)cc3)CCCCC2)c1C [Example 60] | > 33 | 578 | 0.01 | 0.35 | ~9 | 
COc1ccc(C(=O)C2(NC(=O)c3cccc(OC)c3C)CCCCC2)cc1 [Example 46] | > 33 | 102 | 0.00 | 0.00 | > 33 | 5
COc1cccc(C(=O)NC(C)(Cc2ccccc2)C(=O)c2cc(C)cc(C)c2)c1C (centres unmarked) [Example 12] | > 33 | 72 | 0.00 | 0.00 | > 33 | 
COc1cccc(C(=O)NC2(C(=O)c3cccc(C)c3)CCSCC2)c1C [Example 26] | ~20 |  | 0.11 | 0.83 | 11 | 
COc1cccc(C(=O)NC2(C(=O)c3cc(C)cc(C)c3)CCOCC2)c1C [Example 27] | ~20 | 31600 | 0.36 | 0.96 | 10 | 2740
COc1cccc(C(=O)NC2(C(=O)c3ccc(F)c(C)c3)CCCCC2)c1C [Example 18] | 3.96 | 50200 | 0.29 | 0.53 | 3.27 | 
COc1cccc(C(=O)NC2(C(=O)c3cc(C)cc(C)c3)CCC2)c1C [Example 14] | 6.6 | 1024 | 0.33 | 0.89 | ~10 | 
COc1cccc(C(=O)NC2(C(=O)c3cc(F)c(F)c(OC)c3)CCCC2)c1C [Example 67] | 17.6 | 555 | 0.50 | 0.77 | 6.59 | 
CCC(CC)(NC(=O)c1cccc(OC)c1C)C(=O)c1cc(C)cc(C)c1 [Example 51] | ~15 | 1380 | 0.64 | 0.54 | 6.23 | 
COc1ccccc1C(=O)C(C)(NC(=O)c1cccc(OC)c1C)C(C)C (centres unmarked) [Example 30] | > 33 | 133 | 0.00 | 0.03 | > 33 | 
COc1cccc(C(=O)NC(C)(C(=O)c2ccccc2C)C(C)C)c1C (centres unmarked) [Example 63] | > 33 | 14 | 0.03 | 0.68 | 27.2 | 

From patent US8129355B2, “Ketone ligands for modulating the expression of exogenous genes via an ecdysone receptor complex” (priority 2002, dated 2012)
